Measured values from paper PMC6394493 (Cancer Chemotherapy and Pharmacology, 2018).
Like-named read-outs stand apart in the source and are kept apart here.

Tests used:
[1] = Plasma pharmacokinetics (LC–MS/MS, non-compartmental analysis); format: in vivo, Japanese patients; conditions: for AUC(0-t) / AUC(0-inf) / Cmax / Tmax: human, plasma, oral; for AUC(0-inf): read-out: AUCinf, Median; for Cmax: read-out: Cmax, Median
Description: The PK parameters were determined by non-compartmental analysis using Phoenix WinNonlin 6.2® (Pharsight, Mountain View, CA).

[2] = bid; Western oncology patients; cited from earlier work
advanced solid tumors = experiment: Tumor response per RECIST v1.0; format: in vivo, Japanese patients
Description: Tumor lesions were assessed by the investigators according to the RECIST guidelines, v1.0. Patients underwent screening using computed tomography (CT) or magnetic resonance imaging (MRI) scans. Screening was performed within 28 days of the first dose. The post-baseline RECIST assessments were performed every two cycles and then at the end of treatment.

[3] = all formulations and dose levels tested (≥ 100 mg), qd; Western oncology patients; cited from earlier work
[4] = Phase I dose escalation (3 + 3): DLTs, MTD, recommended dose; format: in vivo
Description: BEZ235 was administered orally as a single agent on a continuous qd or bid dosing schedule. […] Furthermore, in the previous study, a granule formulation (BEZ235 SDS sachet) was developed because of difficulties in swallowing the large size capsules of the investigational drug. The ingredients of this new formulation, which are dispensed as granules contained within a sachet, are essentially the same as the capsule. […] Decisions regarding dose escalation were based on the safety profile, particularly DLTs, observed in the first cycle of treatment for each patient.
Safety assessments consisted of monitoring and recording of all AEs, including laboratory abnormalities and vital signs. DLTs were defined as an AE or a laboratory abnormality assessed as related to the study drug and occurring within the first 28 days of treatment (Cycle 1), as defined in Supplemental Table S1.

S6 phosphorylation (pS6) = experiment: pS6 in normal skin samples (PD biomarker); format: in vivo, Japanese patients; conditions: 400 mg bid; 3/6 patients; baseline vs end of Cycle 1

**Q.** With `Cn1c(=O)n(-c2ccc(C(C)(C)C#N)cc2)c2c3cc(-c4cnc5ccccc5c4)ccc3ncc21` [BEZ235] as the compound, how does the AUC(0-t) ([1]; 1000 mg, Cycle 1 Day 8, 1000 mg qd, n = 3, read-out: AUC0 − 24, Median) read?
**A.** 8260 ng·h/mL

**Q.** And the AUC(0-inf) ([1]; 1000 mg, Cycle 1 Day 8, 1000 mg qd, n = 3)?
**A.** 8300 ng·h/mL

**Q.** And the AUC(0-t) ([1]; 1000 mg, Cycle 1 Day 8, 1000 mg qd, n = 7, read-out: AUClast, Median)?
**A.** 9350 ng·h/mL

**Q.** And the Cmax ([1]; 1000 mg, Cycle 1 Day 8, 1000 mg qd, n = 7)?
**A.** 912 ng/mL

**Q.** What about the Tmax ([1]; 1000 mg, Cycle 1 Day 8, 1000 mg qd, n = 7, read-out: Tmax, Median) of the same compound?
**A.** 6 h

**Q.** What about the AUC(0-t) ([1]; 1000 mg, Cycle 1 Day 28, 1000 mg qd, n = 2, read-out: AUC0 − 24, Median) of the same compound?
**A.** 3740 ng·h/mL

**Q.** And the AUC(0-inf) ([1]; 1000 mg, Cycle 1 Day 28, 1000 mg qd, n = 2)?
**A.** 3770 ng·h/mL

**Q.** And the AUC(0-t) ([1]; 1000 mg, Cycle 1 Day 28, 1000 mg qd, n = 4, read-out: AUClast, Median)?
**A.** 4800 ng·h/mL

**Q.** What about the Cmax ([1]; 1000 mg, Cycle 1 Day 28, 1000 mg qd, n = 4) of the same compound?
**A.** 548 ng/mL

**Q.** And the Tmax ([1]; 1000 mg, Cycle 1 Day 28, 1000 mg qd, n = 4, read-out: Tmax, Median)?
**A.** 4 h

**Q.** What about the AUC(0-inf) ([1]; 1200 mg, Cycle 1 Day 1, 1200 mg qd, n = 1) of the same compound?
**A.** 2290 ng·h/mL

**Q.** And the AUC(0-t) ([1]; 1200 mg, Cycle 1 Day 1, 1200 mg qd, n = 3, read-out: AUC0 − 24, Median)?
**A.** 6420 ng·h/mL

**Q.** And the AUC(0-t) ([1]; 1200 mg, Cycle 1 Day 1, 1200 mg qd, n = 5, read-out: AUClast, Median)?
**A.** 6420 ng·h/mL

**Q.** And the Cmax ([1]; 1200 mg, Cycle 1 Day 1, 1200 mg qd, n = 5)?
**A.** 403 ng/mL

**Q.** And the Tmax ([1]; 1200 mg, Cycle 1 Day 1, 1200 mg qd, n = 5, read-out: Tmax, Median)?
**A.** 6 h

**Q.** And the AUC(0-inf) ([1]; 1200 mg, Cycle 1 Day 8, 1200 mg qd, n = 1)?
**A.** 14400 ng·h/mL

**Q.** And the AUC(0-t) ([1]; 1200 mg, Cycle 1 Day 8, 1200 mg qd, n = 4, read-out: AUC0 − 24, Median)?
**A.** 34200 ng·h/mL

**Q.** What about the AUC(0-t) ([1]; 1200 mg, Cycle 1 Day 8, 1200 mg qd, n = 4, read-out: AUClast, Median) of the same compound?
**A.** 33500 ng·h/mL

**Q.** What about the Cmax ([1]; 1200 mg, Cycle 1 Day 8, 1200 mg qd, n = 4) of the same compound?
**A.** 1810 ng/mL

**Q.** What about the Tmax ([1]; 1200 mg, Cycle 1 Day 8, 1200 mg qd, n = 4, read-out: Tmax, Median) of the same compound?
**A.** 4 h

**Q.** And the AUC(0-t) ([1]; 1200 mg, Cycle 1 Day 28, 1200 mg qd, n = 1, read-out: AUC0 − 24, Median)?
**A.** 43400 ng·h/mL

**Q.** And the AUC(0-t) ([1]; 1200 mg, Cycle 1 Day 28, 1200 mg qd, n = 2, read-out: AUClast, Median)?
**A.** 37100 ng·h/mL

**Q.** And the Cmax ([1]; 1200 mg, Cycle 1 Day 28, 1200 mg qd, n = 2)?
**A.** 2170 ng/mL

**Q.** And the Tmax ([1]; 1200 mg, Cycle 1 Day 28, 1200 mg qd, n = 2, read-out: Tmax, Median)?
**A.** 5.9 h

**Q.** And the AUC(0-inf) ([1]; 1400 mg, Cycle 1 Day 1, 1400 mg qd, n = 1)?
**A.** 1290 ng·h/mL

**Q.** And the AUC(0-t) ([1]; 1400 mg, Cycle 1 Day 1, 1400 mg qd, n = 2, read-out: AUC0 − 24, Median)?
**A.** 13700 ng·h/mL

**Q.** What about the AUC(0-t) ([1]; 1400 mg, Cycle 1 Day 1, 1400 mg qd, n = 5, read-out: AUClast, Median) of the same compound?
**A.** 10200 ng·h/mL

**Q.** And the Cmax ([1]; 1400 mg, Cycle 1 Day 1, 1400 mg qd, n = 5)?
**A.** 733 ng/mL

**Q.** What about the Tmax ([1]; 1400 mg, Cycle 1 Day 1, 1400 mg qd, n = 5, read-out: Tmax, Median) of the same compound?
**A.** 8 h

**Q.** And the AUC(0-t) ([1]; 1400 mg, Cycle 1 Day 8, 1400 mg qd, n = 3, read-out: AUC0 − 24, Median)?
**A.** 36400 ng·h/mL

**Q.** And the AUC(0-t) ([1]; 1400 mg, Cycle 1 Day 8, 1400 mg qd, n = 5, read-out: AUClast, Median)?
**A.** 35900 ng·h/mL

**Q.** What about the Cmax ([1]; 1400 mg, Cycle 1 Day 8, 1400 mg qd, n = 5) of the same compound?
**A.** 2480 ng/mL

**Q.** And the Tmax ([1]; 1400 mg, Cycle 1 Day 8, 1400 mg qd, n = 5, read-out: Tmax, Median)?
**A.** 4 h

**Q.** What about the AUC(0-inf) ([1]; 1400 mg, Cycle 1 Day 28, 1400 mg qd, n = 3) of the same compound?
**A.** 30700 ng·h/mL

**Q.** And the AUC(0-t) ([1]; 1400 mg, Cycle 1 Day 28, 1400 mg qd, n = 4, read-out: AUC0 − 24, Median)?
**A.** 18300 ng·h/mL

**Q.** And the AUC(0-t) ([1]; 1400 mg, Cycle 1 Day 28, 1400 mg qd, n = 4, read-out: AUClast, Median)?
**A.** 18300 ng·h/mL

**Q.** And the Cmax ([1]; 1400 mg, Cycle 1 Day 28, 1400 mg qd, n = 4)?
**A.** 1510 ng/mL

**Q.** And the Tmax ([1]; 1400 mg, Cycle 1 Day 28, 1400 mg qd, n = 4, read-out: Tmax, Median)?
**A.** 4 h

**Q.** What about the Tmax ([1]; across all dose levels and dosing schedules, Day 1, Day 8, Day 28 of Cycle 1, read-out: Median Tmax) of the same compound?
**A.** ~4 h

**Q.** And the Tmax ([1]; all dose levels and dosing schedules, read-out: individual Tmax range)?
**A.** 1 to 24 h

**Q.** What about the “PK exposures on Day 8 versus Day 1” value ([1]; qd and bid regimens, Cycle 1) of the same compound?
**A.** at least threefold higher

**Q.** And the MTD [2]?
**A.** 300 mg

**Q.** What about the “complete or partial responses (CR or PR)” value (advanced solid tumors; all dose levels, qd and bid, 35 patients, RECIST v1.0) of the same compound?
**A.** No complete or partial responses

**Q.** What about the “Stable disease (SD) as the best response” value (advanced solid tumors; bid, 2 of 8 evaluable patients) of the same compound?
**A.** 25.0%

**Q.** And the “duration of continued treatment with SD” value (advanced solid tumors; one patient with carcinoma of unknown primary, qd)?
**A.** 10 months

**Q.** And the “Stable disease (SD) as the best response” value (advanced solid tumors; qd, 14 of 27 evaluable patients)?
**A.** 51.9%

**Q.** And the bioavailability [3]?
**A.** low bioavailability

**Q.** And the “recommended dose (RD)” value ([4]; human, in vivo, 28 days)?
**A.** 1000 mg

**Q.** What about the “tolerability of 400 mg bid” value ([4]; in vivo) of the same compound?
**A.** considered as a tolerable dose

**Q.** What about the “maximum clinically tolerable dose” value ([4]; qd dosing schedule) of the same compound?
**A.** 1200 mg

**Q.** And the MTD ([4]; qd dosing, highest dose that causes DLT in no more than one out of six patients in Cycle 1)?
**A.** not reached

**Q.** What about the “samples with reduction of pS6 in normal skin” value (S6 phosphorylation (pS6)) of the same compound?
**A.** 50%
